# From ChEMBL document CHEMBL1833788, “Selective water-soluble gelatinase inhibitor prodrugs” (J Med Chem, 2011)
# How the values were obtained:
# [1] = Chemical stability of the compound in aqueous solution at 10 mg/ml by HPLC up to 2 hrs; format: physicochemical; conditions: buffer
# Plasma [2] = assay: Metabolic stability of the compound in human plasma at 10 mM after 2 mins by reversed-phase HPLC/UV analysis; format: ADME, cell-free; conditions: 10000 µM
# [3] = Solubility of the compound in aqueous solution at 10 mg/ml by UV spectroscopy; format: physicochemical
# Blood [4] = assay: Half life in human blood at 10 mM by reversed-phase HPLC/UV analysis; format: ADME, tissue-based; conditions: 10000 µM
# Plasma [5] = assay: Half life in human plasma at 10 mM by reversed-phase HPLC/UV analysis; format: ADME, cell-free; conditions: 10000 µM
# Blood [6] = assay: Prodrug conversion in human blood assessed as release of 4-[4-((Thiiran-2-yl)methylsulphonyl)phenoxy]benzamine at 10 mM after 30 mins by reversed-phase HPLC/UV analysis; format: ADME, tissue-based; conditions: 0.5 h, 10000 µM
# [7] = Chemical stability of the compound in aqueous solution at 10 mg/ml by HPLC after 1 month; format: physicochemical; conditions: buffer, 730.5 h
# Liver microsomes [8] = assay: Half life in rat liver microsomes at 100 uM by reversed-phase HPLC/UV analysis; format: ADME, Microsome
# Liver microsomes [9] = assay: Half life in human liver microsomes at 100 uM by reversed-phase HPLC/UV analysis; format: ADME, Microsome
# Salmonella typhimurium [10] = assay: Induction of mutagenicity in Salmonella Typhimurium TA7001 to TA7006 at 1 mg/mL after 48 hrs by Ames assay in absence of rat liver S9 metabolic activation system; format: toxicity, organism-based; conditions: salmonella enterica subsp. enterica serovar typhimurium
# Salmonella typhimurium [11] = assay: Induction of mutagenicity in Salmonella Typhimurium TA7001 to TA7006 at 1 mg/mL after 48 hrs by Ames assay in presence of rat liver S9 metabolic activation system; format: toxicity, organism-based; conditions: salmonella enterica subsp. enterica serovar typhimurium, s9, 48 h
# [12] = Apparent intrinsic clearance in human liver microsomes; format: ADME, Microsome
# Salmonella typhimurium [13] = assay: Induction of mutagenicity in Salmonella Typhimurium TA98 at 1 mg/mL after 48 hrs by Ames assay in presence of rat liver S9 metabolic activation system; format: toxicity, organism-based; conditions: salmonella enterica subsp. enterica serovar typhimurium, s9, 48 h
# Liver = assay: Half life in mouse liver microsomes at 100 uM by reversed-phase HPLC/UV analysis; format: ADME, Microsome
# Liver microsomes [14] = assay: Prodrug conversion in rat liver microsomes assessed as release of 4-(4-{[(1-oxidothiiran-2-yl)methyl]sulfonyl}phenoxy)aniline after 30 mins by HPLC/MS analysis; format: ADME, Microsome; conditions: 0.5 h
# Salmonella typhimurium [15] = assay: Induction of mutagenicity in Salmonella Typhimurium TA98 at 1 mg/mL after 48 hrs by Ames assay in absence of rat liver S9 metabolic activation system; format: toxicity, organism-based; conditions: salmonella enterica subsp. enterica serovar typhimurium, s9, 48 h
# Liver microsomes [16] = assay: Prodrug conversion in rat liver microsomes assessed as release of 2-amino-5-(4-(thiiran-2-ylmethylsulfonyl)phenoxy)phenol after 30 mins by HPLC/MS analysis; format: ADME, Microsome; conditions: 0.5 h
# Mus musculus [17] = assay: Prodrug conversion in C57B1/6 mouse assessed as N-(4-(4-(thiiran-2-ylmethylsulfonyl)phenoxy)phenyl)acetamide level in plasma at […], iv administered as single bolus dose after 11 to 12 mins by reversed-phase LC/MS analysis; conditions: in vivo
# Mus musculus [18] = assay: Prodrug conversion in C57B1/6 mouse assessed as N-(4-(4-(thiiran-2-ylmethylsulfonyl)phenoxy)phenyl)acetamide level in plasma at […], iv administered as single bolus dose after 62 to 66 mins by reversed-phase LC/MS analysis; conditions: in vivo
# Mus musculus [19] = assay: Distribution half life in C57B1/6 mouse plasma assessed as N-(4-(4-(thiiran-2-ylmethylsulfonyl)phenoxy)phenyl)acetamide level at […], iv administered as single bolus dose; format: ADME, organism-based; conditions: in vivo
# Mus musculus [20] = assay: AUC (0 to infinity) in C57B1/6 mouse plasma assessed as parent compound level at […], iv administered as single bolus dose; format: ADME, organism-based; conditions: in vivo
# Mus musculus [21] = assay: Clearance in C57B1/6 mouse plasma assessed as parent compound level at […], iv administered as single bolus dose; format: ADME, organism-based; conditions: in vivo
# Mus musculus [22] = assay: Terminal half life in C57B1/6 mouse plasma assessed as parent compound level at […], iv administered as single bolus dose; format: ADME, organism-based; conditions: in vivo
# Mus musculus [23] = assay: Volume of distribution in C57B1/6 mouse plasma assessed as parent compound level at […], iv administered as single bolus dose; format: ADME, organism-based; conditions: in vivo
# Mus musculus [24] = assay: Prodrug conversion in C57B1/6 mouse assessed as N-(4-(4-(thiiran-2-ylmethylsulfonyl)phenoxy)phenyl)acetamide level in plasma at […], iv administered as single bolus dose after 120 to 123 mins by reversed-phase LC/MS analysis; conditions: in vivo
# Mus musculus [25] = assay: Prodrug conversion in C57B1/6 mouse assessed as N-(4-(4-((Thiiran-2-ylmethyl)sulfonyl)phenoxy)phenyl) hydroxylamine level in plasma at […], iv administered as single dose by reversed-phase LC/MS analysis; format: ADME, organism-based; conditions: in vivo
# Mus musculus [26] = assay: Terminal half life in C57B1/6 mouse plasma assessed as N-(4-(4-(thiiran-2-ylmethylsulfonyl)phenoxy)phenyl)acetamide level at […], iv administered as single bolus dose; format: ADME, organism-based; conditions: in vivo, BLD = below limit of detection
# Mus musculus [27] = assay: Prodrug conversion in C57B1/6 mouse assessed as N-(4-(4-(thiiran-2-ylmethylsulfonyl)phenoxy)phenyl)acetamide level in plasma at […], iv administered as single bolus dose after 30 mins by reversed-phase LC/MS analysis; conditions: in vivo, 0.5 h
# Mus musculus [28] = assay: AUC (0 to last) in C57B1/6 mouse plasma assessed as N-(4-(4-(thiiran-2-ylmethylsulfonyl)phenoxy)phenyl)acetamide level at […], iv administered as single bolus dose; format: ADME, organism-based; conditions: in vivo
# Mus musculus [29] = assay: Prodrug conversion in C57B1/6 mouse assessed as N-(4-(4-(thiiran-2-ylmethylsulfonyl)phenoxy)phenyl)acetamide level in plasma at […], iv administered as single bolus dose after 2 to 3 mins by reversed-phase LC/MS analysis; conditions: in vivo
# Mus musculus [30] = assay: Prodrug conversion in C57B1/6 mouse assessed as N-(4-(4-((Thiiran-2-ylmethyl)sulfonyl)phenoxy)phenyl) hydroxylamine level in urine at […], iv administered as single dose by reversed-phase LC/MS analysis; format: ADME, organism-based; conditions: in vivo
# Mus musculus [31] = assay: Prodrug conversion in C57B1/6 mouse assessed as N-(4-(4-(thiiran-2-ylmethylsulfonyl)phenoxy)phenyl)acetamide level in plasma at […], iv administered as single bolus dose after 7 to 8 mins by reversed-phase LC/MS analysis; conditions: in vivo
# Mus musculus [32] = assay: AUC (0 to infinity) in C57B1/6 mouse plasma assessed as N-(4-(4-(thiiran-2-ylmethylsulfonyl)phenoxy)phenyl)acetamide level at […], iv administered as single bolus dose; format: ADME, organism-based; conditions: in vivo, BLD = below limit of detection
# Rattus norvegicus = organism: Rattus norvegicus; assay: Hepatic blood flow in rat; format: ADME, organism-based, Liver
# Liver microsomes [33] = assay: Prodrug conversion in rat liver microsomes assessed as release of 4-(4-aminophenoxy)benzenesulfinic acid after 60 mins by HPLC/MS analysis; format: ADME, Microsome; conditions: 1 h
# Mus musculus [34] = organism: Mus musculus; assay: Hepatic blood flow in mouse; format: ADME, organism-based, Liver
# Homo sapiens = organism: Homo sapiens; assay: Hepatic blood flow in human; format: ADME, organism-based, Liver
# Liver microsomes [35] = assay: Prodrug conversion in rat liver microsomes assessed as release of 4-(4-((S)-2-amino-5-guanidinopentanamido)phenoxy)benzenesulfinic acid after 60 mins by HPLC/MS analysis; format: ADME, Microsome; conditions: 1 h
# Liver microsomes [36] = assay: Prodrug conversion in rat liver microsomes assessed as release of N-(4-(4-(thiiran-2-ylmethylsulfonyl)phenoxy)phenyl)acetamide after 60 mins by HPLC/MS analysis; format: ADME, Microsome; conditions: 1 h
# [37] = biological target: Matrix metalloproteinase-9 (Homo sapiens, UniProt P14780)
# Description: Inhibition of human recombinant MMP9 catalytic domain assessed as hydrolysis of MOCAcPLGLA2pr(Dnp)AR-NH2 by fluorescence spectrofluorometry
# [38] = biological target: Stromelysin-1 (Homo sapiens) (UniProt P08254); assay: Inhibition of human recombinant MMP3 catalytic domain assessed as hydrolysis of MOCAcPLGLA2pr(Dnp)AR-NH2 at 300 uM fluorescence by spectrofluorometry
# [39] = biological target: T1, Interstitial collagenase (Homo sapiens) (UniProt P03956); assay: Inhibition of human recombinant MMP1 catalytic domain assessed as hydrolysis of MOCAcPLGLA2pr(Dnp)AR-NH2 at 300 uM by fluorescence spectrofluorometry
# T1 sequence (whole entry): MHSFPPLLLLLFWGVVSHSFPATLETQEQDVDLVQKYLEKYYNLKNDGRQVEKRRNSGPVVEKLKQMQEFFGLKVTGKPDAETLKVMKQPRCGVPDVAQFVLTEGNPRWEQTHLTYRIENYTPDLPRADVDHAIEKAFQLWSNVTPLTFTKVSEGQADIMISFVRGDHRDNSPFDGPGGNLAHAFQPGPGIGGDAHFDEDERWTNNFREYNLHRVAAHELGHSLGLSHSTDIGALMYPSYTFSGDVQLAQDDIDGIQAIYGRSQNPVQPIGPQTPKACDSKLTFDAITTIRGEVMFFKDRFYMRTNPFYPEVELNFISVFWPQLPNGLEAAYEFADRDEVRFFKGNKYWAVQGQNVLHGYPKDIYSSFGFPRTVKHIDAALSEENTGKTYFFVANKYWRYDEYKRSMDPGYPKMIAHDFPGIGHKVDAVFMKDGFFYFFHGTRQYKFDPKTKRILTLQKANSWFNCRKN
# Stromelysin-1 (Homo sapiens), sequence (P08254 100-477 limits assumed): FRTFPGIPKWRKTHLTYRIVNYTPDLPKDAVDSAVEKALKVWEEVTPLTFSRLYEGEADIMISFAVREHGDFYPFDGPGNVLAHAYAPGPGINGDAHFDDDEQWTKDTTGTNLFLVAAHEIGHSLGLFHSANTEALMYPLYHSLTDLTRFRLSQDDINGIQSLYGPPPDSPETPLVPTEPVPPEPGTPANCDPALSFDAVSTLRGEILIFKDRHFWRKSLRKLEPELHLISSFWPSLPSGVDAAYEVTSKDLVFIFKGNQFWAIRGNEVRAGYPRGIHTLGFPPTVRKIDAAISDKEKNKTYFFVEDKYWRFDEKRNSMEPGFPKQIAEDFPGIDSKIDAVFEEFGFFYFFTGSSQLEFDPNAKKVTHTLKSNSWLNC
# Matrix metalloproteinase-9, sequence (P14780 whole entry, the tested form may be a part): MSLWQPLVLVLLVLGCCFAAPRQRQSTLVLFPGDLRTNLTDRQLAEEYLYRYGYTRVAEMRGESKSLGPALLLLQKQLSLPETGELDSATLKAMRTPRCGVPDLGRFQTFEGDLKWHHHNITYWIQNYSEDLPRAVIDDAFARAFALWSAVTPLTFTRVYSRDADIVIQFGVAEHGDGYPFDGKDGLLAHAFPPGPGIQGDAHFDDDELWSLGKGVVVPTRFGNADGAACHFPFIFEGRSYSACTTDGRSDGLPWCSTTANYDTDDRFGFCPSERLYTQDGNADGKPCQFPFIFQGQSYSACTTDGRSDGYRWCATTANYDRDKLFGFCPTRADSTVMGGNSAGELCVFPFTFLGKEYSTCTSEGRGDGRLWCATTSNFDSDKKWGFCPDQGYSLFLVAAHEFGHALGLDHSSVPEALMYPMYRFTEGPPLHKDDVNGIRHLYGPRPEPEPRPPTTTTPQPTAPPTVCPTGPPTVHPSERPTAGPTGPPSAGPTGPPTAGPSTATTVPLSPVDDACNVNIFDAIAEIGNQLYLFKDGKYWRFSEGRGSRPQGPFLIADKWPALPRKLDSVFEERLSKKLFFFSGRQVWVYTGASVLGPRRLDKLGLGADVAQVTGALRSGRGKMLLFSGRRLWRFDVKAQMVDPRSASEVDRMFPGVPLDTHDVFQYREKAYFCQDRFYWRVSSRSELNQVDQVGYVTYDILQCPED
smiles,measurement,setting,value
N=C(N)NCCC[C@H](N)C(=O)Oc1ccc(Oc2ccc(S(=O)(=O)CC3CS3)cc2)cc1 (stereo partly specified),Stability,[1],Unstable
same,Stability,Plasma [2],Unstable
same,solubility,[3],> 10000 µg/mL
NCC(=O)Nc1ccc(Oc2ccc(S(=O)(=O)CC3CS3)cc2)cc1 (stereo unspecified),t1/2,Blood [4],27.1 min
same,solubility,[3],> 10000 µg/mL
same,t1/2,Plasma [5],32.4 min
same,Drug metabolism,Blood [6],Active
same,Stability,[7],Stable
Nc1ccc(Oc2ccc(S(=O)(=O)CC3CS3)cc2)cc1 (stereo unspecified),t1/2,Liver microsomes [8],23.4 min
same,t1/2,Liver microsomes [9],> 60 min
same,Activity,Salmonella typhimurium [10],Non-toxic
same,Activity,Salmonella typhimurium [11],Non-toxic
same,CLint scaled,[12],< 10 mL/min/kg
same,Activity,Salmonella typhimurium [13],Non-toxic
same,t1/2,Liver,27.3 min
same,Drug metabolism,Liver microsomes [14],Active
same,Activity,Salmonella typhimurium [15],Non-toxic
same,Drug metabolism,Liver microsomes [16],Active
N=C(N)NCCC[C@H](NC(=O)[C@@H](N)CCCNC(=N)N)C(=O)Oc1ccc(Oc2ccc(S(=O)(=O)CC3CS3)cc2)cc1 (stereo partly specified),Stability,[1],Unstable
same,Stability,Plasma [2],Unstable
same,solubility,[3],> 10000 µg/mL
Cl.Nc1ccc(Oc2ccc(S(=O)(=O)CC3CS3)cc2)cc1 (stereo unspecified),Drug metabolism,Mus musculus [17],0.15 µM
same,Drug metabolism,Mus musculus [18],0.0273 µM
same,alphat1/2,Mus musculus [19],5.1 min
same,AUC,Mus musculus [20],221 µM·min
same,CL,Mus musculus [21],87.5 mL/min/kg
same,beta t1/2,Mus musculus [22],21 min
same,Vd,Mus musculus [23],0.532 L/kg
same,Drug metabolism,Mus musculus [24],0.00277 µM
same,Drug metabolism,Mus musculus [25],Not Active
same,beta t1/2,Mus musculus [26],BLD
same,Drug metabolism,Mus musculus [27],0.0958 µM
same,AUClast,Mus musculus [28],7.71 µM·min
same,Drug metabolism,Mus musculus [29],0.197 µM
same,Drug metabolism,Mus musculus [30],Not Active
same,Drug metabolism,Mus musculus [31],0.192 µM
same,AUC,Mus musculus [32],BLD
N=C(N)NCCC[C@H](N)C(=O)Nc1ccc(Oc2ccc(S(=O)(=O)CC3CS3)cc2)cc1 (stereo partly specified),t1/2,Liver microsomes [8],59.3 min
same,QH,Rattus norvegicus,66 mL/min/kg
same,Drug metabolism,Liver microsomes [33],Active
same,t1/2,Blood [4],25.4 min
same,t1/2,Liver microsomes [9],> 60 min
same,Activity,Salmonella typhimurium [10],Non-toxic
same,Activity,Salmonella typhimurium [11],Non-toxic
same,solubility,[3],> 10000 µg/mL
same,t1/2,Plasma [5],29.5 min
same,QH,Mus musculus [34],86 mL/min/kg
same,Drug metabolism,Blood [6]; TDE = time-dependent effect,tde
same,QH,Homo sapiens,21 mL/min/kg
same,Drug metabolism,Liver microsomes [35],Active
same,Activity,Salmonella typhimurium [13],Non-toxic
same,t1/2,Liver,> 60 min
same,Activity,Salmonella typhimurium [15],Non-toxic
same,Drug metabolism,Liver microsomes [36],Active
same,Stability,[7],Stable
NCC(=O)Oc1ccc(Oc2ccc(S(=O)(=O)CC3CS3)cc2)cc1 (stereo unspecified),Stability,[1],Unstable
same,Stability,Plasma [2],Unstable
same,solubility,[3],> 10000 µg/mL
N[C@@H](CCC(=O)O)C(=O)Oc1ccc(Oc2ccc(S(=O)(=O)CC3CS3)cc2)cc1 (stereo partly specified),Stability,[1],Unstable
same,Stability,Plasma [2],Unstable
same,solubility,[3],> 10000 µg/mL
NCCCC[C@H](N)C(=O)Oc1ccc(Oc2ccc(S(=O)(=O)CC3CS3)cc2)cc1 (stereo partly specified),Stability,[1],Unstable
same,Stability,Plasma [2],Unstable
same,solubility,[3],> 10000 µg/mL
N[C@@H](CCC(=O)O)C(=O)Nc1ccc(Oc2ccc(S(=O)(=O)CC3CS3)cc2)cc1 (stereo partly specified),t1/2,Blood [4],27.9 min
same,solubility,[3],> 10000 µg/mL
same,t1/2,Plasma [5],32.8 min
same,Drug metabolism,Blood [6],Active
same,Ki,[37],4.3 µM
same,Stability,[7],Stable
N=C(N)NCCC[C@H](NC(=O)[C@@H](N)CCCNC(=N)N)C(=O)Nc1ccc(Oc2ccc(S(=O)(=O)CC3CS3)cc2)cc1 (stereo partly specified),t1/2,Blood [4],5.9 min
same,solubility,[3],> 10000 µg/mL
same,t1/2,Plasma [5],11.8 min
same,Stability,[7],Stable
Nc1ccc(Oc2ccc(S(=O)(=O)CC3CS3)cc2)cc1O (stereo unspecified),inhibition,[38],54%
same,inhibition,[39],11%
NCCCC[C@H](N)C(=O)Nc1ccc(Oc2ccc(S(=O)(=O)CC3CS3)cc2)cc1 (stereo partly specified),t1/2,Blood [4],15.3 min
same,solubility,[3],> 10000 µg/mL
same,t1/2,Plasma [5],25.1 min
same,Drug metabolism,Blood [6],Active
same,Stability,[7],Stable
